Data: paper PMC6934184, “Selective DNA-PKcs inhibition extends the therapeutic index of localized radiotherapy and chemotherapy” (The Journal of Clinical Investigation, 2019)

Molecular target: T1, MAP3K11 (MLK3) (Homo sapiens, UniProt Q16584)
T1 construct: purchased Thermo Fisher Scientific (Life Technologies) SelectScreen
Assay: SelectScreen LanthaScreen
Assay type: binding
Details: 1 µM
Outline: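 SelectScreen broad panel; activity (Z'LYTE, Adapta) plus binding formats. ATP: Km app for CSF1R Z'LYTE; 10 for CAMK1 Adapta. Readout = % per kinase.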

T1 sequence (Q16584 whole entry): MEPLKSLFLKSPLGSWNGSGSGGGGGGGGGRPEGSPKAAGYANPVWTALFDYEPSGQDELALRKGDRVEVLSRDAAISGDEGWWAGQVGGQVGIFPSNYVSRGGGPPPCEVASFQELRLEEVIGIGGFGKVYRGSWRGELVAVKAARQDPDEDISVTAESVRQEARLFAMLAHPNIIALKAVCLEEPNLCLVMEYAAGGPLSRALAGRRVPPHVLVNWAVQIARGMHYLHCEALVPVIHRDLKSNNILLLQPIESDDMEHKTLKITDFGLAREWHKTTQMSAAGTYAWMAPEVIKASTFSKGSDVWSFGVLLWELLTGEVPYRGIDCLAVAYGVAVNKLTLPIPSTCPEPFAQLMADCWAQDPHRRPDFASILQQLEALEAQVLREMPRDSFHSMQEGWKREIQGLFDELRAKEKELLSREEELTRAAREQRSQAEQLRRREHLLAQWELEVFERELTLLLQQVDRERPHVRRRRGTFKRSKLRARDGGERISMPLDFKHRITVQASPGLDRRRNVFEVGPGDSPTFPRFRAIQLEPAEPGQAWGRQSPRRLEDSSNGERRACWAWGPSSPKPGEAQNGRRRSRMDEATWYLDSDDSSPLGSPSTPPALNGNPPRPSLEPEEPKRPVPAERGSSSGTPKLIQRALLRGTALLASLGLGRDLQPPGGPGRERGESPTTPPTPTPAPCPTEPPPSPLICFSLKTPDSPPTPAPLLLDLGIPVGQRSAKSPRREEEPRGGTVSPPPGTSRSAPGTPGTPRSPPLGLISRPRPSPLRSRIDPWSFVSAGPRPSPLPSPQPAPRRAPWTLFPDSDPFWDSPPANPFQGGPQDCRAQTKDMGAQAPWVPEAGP

With `CN(C(=O)CN1CCOCC1)c1ccc2sc3c(-c4cccc5c(=O)cc(N6CC7CCC(C6)O7)oc45)cccc3c2c1` [NU5455] the “% displacement” value was 4.0%.
